# Data from patent US8067611B2, “Substituted 1-(thiazolyl)-and 1-(isothiazolyl)pyrazol-4-ylacetic acids, processes for their preparation and their use as herbicides and plant growth regulators” (Bayer CropScience AG, priority 2008, dated 2011).
# Columns and labels:
# Type in all cases: in vivo
# Alopecurus myosuroides = assay: Pre-emergence herbicidal effect, greenhouse pot test; conditions: 1.0 kg or 0.32 kg of active substance per hectare, 100% = plants have died
# Source text: (§1) Seeds of monocotyledonous or dicotyledonous weed plants or crop plants are planted in wood-fiber pots in sandy loam and covered with soil. The compounds (I) according to the invention, formulated in the form of wettable powders (WP), are then applied as aqueous suspension or emulsion at a water application rate of 600 I/ha (converted) with the addition of 0.2% of wetting agent to the surface of the covering soil.
# (§2) Following the treatment, the pots are placed in a greenhouse and kept under good growth conditions for the test plants. After about 3 weeks, the effect of the preparations is scored visually in comparison with untreated controls (herbicidal effect in percent (%): 100% effect=plants have died, 0% effect=as control plants).
# Avena fatua = assay: as above; conditions: 1.0 kg or 0.32 kg of active substance per hectare, 100% = plants have died
# Source text: as §1, §2
# Echinochloa crus galli = assay: as above; conditions: 1.0 kg or 0.32 kg of active substance per hectare, 100% = plants have died
# Source text: as §1, §2
# Setaria viridis = assay: as above; conditions: 1.0 kg or 0.32 kg of active substance per hectare, 100% = plants have died
# Source text: as §1, §2
# harmful plants = assay: as above; conditions: application rate of 1 kg or less of active substance per hectare, scored after about 3 weeks
# Source text: as §1, §2
# [1] = test system: weed-grasses and broad-leaved weeds; assay: Post-emergence herbicidal effect, greenhouse pot test; conditions: application rate of 1 kg and less of active substance per hectare, scored after 3 weeks
# Description: Seeds of monocotyledonous or dicotyledonous weed plants or crop plants are planted in wood-fiber pots in sandy loam, covered with soil and grown in a greenhouse under good growth conditions. 2 to 3 weeks after sowing, the test plants are treated in the one-leaf stage. The compounds according to the invention, formulated in the form of wettable powders (WP), are then sprayed onto the green plant parts as aqueous suspension or emulsion at a water application rate of 600 I/ha (converted) with the addition of 0.2% of wetting agent. After 3 weeks' standing time of the test plants in the greenhouse under optimum growth conditions, the effect of the preparations is scored visually in comparison with untreated controls (herbicidal effect in percent (%): 100% effect=plants have died, 0% effect=as control plants).
Structure (SMILES),herbicidal activity (Alopecurus myosuroides) [%],herbicidal activity (Avena fatua) [%],herbicidal activity (Echinochloa crus galli) [%],herbicidal activity (Setaria viridis) [%],herbicidal pre-emergence activity against a number of harmful plants (harmful plants),post-emergence activity against a broad spectrum of weed-grasses and broad-leaved weeds [1]
COC(=O)Cc1c(C)nn(-c2cncs2)c1-c1cnc(C)cn1 [Compound 8-217],≥ 80,≥ 80,≥ 80,≥ 80,good herbicidal pre-emergence activity,good post-emergence activity
"CCOC(=O)c1ncsc1-n1nc(C)c(CC(=O)OC)c1-c1ccccn1 [Compound 8-241, Ethyl 5-[4-(2-methoxy-2-oxoethyl)-3-methyl-5-(pyridin-2-yl)-1H-pyrazol-1-yl]-1,3-thiazole-4-carboxylate]",–,–,–,–,good herbicidal pre-emergence activity,good post-emergence activity
COC(=O)Cc1c(C)nn(-c2cncs2)c1-c1ccc(-c2ccccc2)cc1 [Compound 8-276],–,–,–,–,good herbicidal pre-emergence activity,good post-emergence activity
COC(=O)Cc1c(C)nn(-c2cncs2)c1-c1cc(C)c(Cl)cn1 [Compound 8-294],–,–,–,–,good herbicidal pre-emergence activity,good post-emergence activity
CCOC(=O)Cc1c(C)nn(-c2cncs2)c1-c1ccc(Cl)cc1 [Compound 9-4],–,–,–,–,good herbicidal pre-emergence activity,good post-emergence activity
Cc1nn(-c2cncs2)c(-c2ccc(Cl)cc2)c1CC(=O)OCC1CC1 [Compound 9-122],–,–,–,–,good herbicidal pre-emergence activity,good post-emergence activity
